Here are results for 14 compounds from ChEMBL document CHEMBL6114963, “Discovery and preclinical evaluations of drug candidate DA-0157 capable of overcoming EGFR drug-resistant mutation C797S and EGFR/ALK co-mutations” (Eur J Med Chem, 2025).

For data set [1], the system named is BaF3. The data set can be described thus: Antitumor activity against mouse BaF3 cells harbouring EML-4-ALK-L1196M mutant allografted in female BALB/c nude mouse assessed as tumor growth inhibition at 20 mg/kg, po administered once daily for 11 days by vernier caliper based analysis relative to control. To be noted: BaF3, 264 h, time 11 day, read-out: TGI. In kind it is functional.

A short description of data set [2]: Potency index, ratio of Brigatinib IC50 to test compound IC50 for antiproliferative activity against mouse BaF3 cells harboring EGFR Del19/T790M/C797S mutant assessed as inhibition of cell growth incubated for 72 hrs by CellTiter-Glo assay. It counts as functional. In general terms: ATP-based viability assays read luminescence as a measure of living cells.
Data set [3] has as its system BaF3. The data set can be described thus: Antiproliferative activity against mouse BaF3 cells harboring EML4-ALK assessed as inhibition of cell growth incubated for 72 hrs by CellTiter-Glo assay. In kind it is functional, cell-based. To be noted: BaF3, 72 h.
Data set [4] has as its system BaF3. The data set can be described thus: Antiproliferative activity against mouse BaF3 cells harboring EGFR Del19/T790M/C797S mutant assessed as inhibition of cell growth incubated for 72 hrs by CellTiter-Glo assay. It counts as functional, cell-based. To be noted: BaF3, 72 h.
Data set [5] relates to BaF3. The data set can be described thus: Antiproliferative activity against mouse BaF3 cells harboring wild-type EGFR assessed as inhibition of cell growth incubated for 72 hrs by CellTiter-Glo assay. In kind it is functional, cell-based. To be noted: BaF3, 72 h.
In data set [6] the test system is BaF3. Kind of data set: Antiproliferative activity against mouse BaF3 cells harboring EML4-ALK-L1196M mutant assessed as inhibition of cell growth incubated for 72 hrs by CellTiter-Glo assay. In kind it is functional, cell-based. Particulars: BaF3, 72 h.
Data set [7] in a line: Potency index, ratio of Brigatinib IC50 to test compound IC50 for antiproliferative activity against mouse BaF3 cells harboring EML4-ALK-L1196M mutant assessed as inhibition of cell growth incubated for 72 hrs by CellTiter-Glo assay. It counts as functional.
The subject of data set [8] is BaF3. The data set can be described thus: Antitumor activity against mouse BaF3 cells harbouring EML-4-ALK-L1196M mutant allografted in female BALB/c nude mouse assessed as tumor growth inhibition at 46 mg/kg, po administered once daily for 11 days by vernier caliper based analysis relative to control. It counts as functional. To be noted: BaF3, 264 h, time 11 day, read-out: TGI.

Data set [9] relates to BaF3. The data set can be described thus: Antitumor activity against mouse BaF3 cells harbouring EML-4-ALK-L1196M mutant allografted in female BALB/c nude mouse assessed as tumor growth inhibition at 100 mg/kg, po administered once daily for 11 days by vernier caliper based analysis relative to control. In kind it is functional, organism-based. To be noted: time 11.0 day.

Data set [10] concerns BaF3. The data set can be described thus: Antiproliferative activity against mouse BaF3 cells harbouring EML4-ALK-C1156Y mutant assessed as inhibition of cell growth incubated for 72 hrs by CellTiter-Glo Luminescent Cell Viability Assay. It counts as functional, cell-based. To be noted: BaF3, 72 h.
Data set [11] in a line: Antitumor activity against patient derived LU2445 lung cancer cells harbouring EML4-ALK model assessed as tumor growth inhibition po dose administered for 25 days by vernier caliper based analysis relative to control. In kind it is functional, Homo sapiens. To be noted: time 25 day.
The test system of data set [12] is NCI-H3122. Kind of data set: Antiproliferative activity against human NCI-H3122 cells harbouring EML4-ALK assessed as inhibition of cell growth incubated for 72 hrs by CellTiter-Glo Luminescent Cell Viability Assay. In kind it is functional, cell-based. To be noted: NCI-H3122, 72 h.
Data set [13] has as its system BaF3. The data set can be described thus: Antitumor activity against mouse BaF3 cells harbouring EML-4-ALK-L1196M mutant allografted in female BALB/c nude mouse assessed as tumor growth inhibition at 25 mg/kg, po administered once daily for 11 days by vernier caliper based analysis relative to control. It counts as functional. Particulars: BaF3, 264 h, time 11 day, read-out: TGI.

Data set [14] is described as follows: Toxicity in female Sprague-Dawley rat assessed as animal death at 125 mg/kg, po administered for 14 days. In kind it is organism-based. Particulars: in vivo, 336 h, time 14 day.
The nature of data set [15]: Toxicity in male Sprague-Dawley rat assessed as animal death at 75 mg/kg, po administered for 14 days. In kind it is organism-based. Particulars: in vivo, 336 h, time 14 day.
A short description of data set [16]: Toxicity in male Sprague-Dawley rat assessed as animal death at 200 mg/kg, po administered for 14 days. It counts as organism-based. Particulars: in vivo, 336 h, time 14 day.
Data set [17] can be described thus: Toxicity in female Sprague-Dawley rat assessed as animal death at 200 mg/kg, po administered for 14 days. It counts as organism-based. Particulars: in vivo, 336 h, time 14 day.
Data set [18] has as its system BaF3. Kind of data set: Antitumor activity against mouse BaF3 cells harbouring EML-4-ALK-L1196M mutant allografted in female BALB/c nude mouse assessed as tumor growth inhibition at 37 mg/kg, po administered once daily for 11 days by vernier caliper based analysis relative to control. It counts as functional. To be noted: BaF3, 264 h, time 11 day, read-out: TGI.
The nature of data set [19]: Toxicity in Sprague-Dawley rat blood assessed as adverse effect at 17.5 mg/kg, po administered once daily for 7 days. It counts as organism-based. Particulars: in vivo, 168 h, time 7 day.
Data set [20] is described as follows: Toxicity in Sprague-Dawley rat assessed as maximum tolerated dose administered as single po dose measured for 14 days. In kind it is organism-based. To be noted: in vivo, time 14 day.
Data set [21] in a line: AUC (0 to infinity) in male Sprague-Dawley rat plasma at 10 mg/kg, po measured upto 72 hrs. It counts as ADME, organism-based.
Data set [22] in a line: Toxicity in male Sprague-Dawley rat assessed as animal death at 125 mg/kg, po administered for 14 days. It counts as organism-based. Particulars: in vivo, 336 h, time 14 day.
A short description of data set [23]: Toxicity in female Sprague-Dawley rat assessed as animal death at 75 mg/kg, po administered for 14 days. In kind it is organism-based. Particulars: in vivo, 336 h, time 14 day.
Data set [24] in a line: Half life in male Sprague-Dawley rat plasma at 10 mg/kg, po measured upto 72 hrs. In kind it is ADME, organism-based.
A short description of data set [25]: Tmax in male Sprague-Dawley rat plasma at 10 mg/kg, po measured upto 72 hrs. It counts as ADME, organism-based.
Data set [26] can be described thus: MRT (0 to infinity) in male Sprague-Dawley rat plasma at 10 mg/kg, po measured upto 72 hrs. It counts as ADME, organism-based.
A short description of data set [27]: Cmax in male Sprague-Dawley rat plasma at 10 mg/kg, po measured upto 72 hrs. In kind it is ADME, organism-based.
Data set [28] is described as follows: Antiproliferative activity against human NCI-H1975 cells harbouring EGFR del19/T790M/C797S mutant assessed as inhibition of cell growth incubated for 72 hrs by CellTiter-Glo Luminescent Cell Viability Assay. In kind it is functional, cell-based. Particulars: NCI-H1975, 72 h.
Data set [29] has as its system PC-9. The data set can be described thus: Antiproliferative activity against human PC-9 cells harbouring EGFR del19/T790M/C797S mutant assessed as inhibition of cell growth incubated for 72 hrs by CellTiter-Glo Luminescent Cell Viability Assay. It counts as functional, cell-based. Particulars: PC-9, 72 h.
The test system of data set [30] is A-431. The data set can be described thus: Antiproliferative activity against human A-431 cells harbouring wild-type EGFR assessed as inhibition of cell growth incubated for 72 hrs by CellTiter-Glo Luminescent Cell Viability Assay. In kind it is functional, cell-based. Particulars: A-431, 72 h.

As for `CCc1cc2c(cc1N1CCC(N3CCOCC3)CC1)C(C)(C)c1[nH]c3cc(C#N)ccc3c1C2=O` [ALECTINIB], the inhibition in vivo at 20 mg/kg in data set [1] was found to be 87.4%.

Consider `COc1cc(N2CCC(N3CCN(C)CC3)CC2)c(C)cc1Nc1ncc(Cl)c(Nc2ccccc2P(C)(C)=O)n1`, for which the Ratio in [2] is recorded as 7. In addition, the concentration for half-maximal inhibition (IC50) (commonly the point on the concentration scale where inhibition reaches its midpoint) in data set [3] came to 0.007 µM; in data set [4] it was 0.026 µM; in [5], 0.82 µM; in data set [6] it was 0.018 µM.

For `COc1cc(N2CCC(N3CCN(C)CC3)CC2)c(C)cc1Nc1ncc(Cl)c(Nc2ccc(C)cc2P(C)(C)=O)n1`, the Ratio in [2] and in data set [7] was 8 throughout. Further, the half-inhibitory concentration (IC50) in data set [3] is 0.014 µM; in data set [4], 0.022 µM; in data set [5], 0.69 µM; in [6] it was 0.029 µM.

As for `C[C@H]1Oc2cc(cnc2N)-c2c(nn(C)c2C#N)CN(C)C(=O)c2ccc(F)cc21` [LORLATINIB], the inhibition in vivo at 20 mg/kg in data set [1] was found to be 129%.

Take `COc1cc(N2CCC(N3CCN(C)CC3)CC2)c(C)cc1Nc1ncc(Br)c(Nc2ccc(Cl)cc2P(C)(C)=O)n1`: the 50% inhibitory concentration (IC50) turned out to be 0.012 µM in [3], 0.005 µM in data set [4], 1.03 µM in data set [5] and 0.025 µM in [6].

For `COc1cc(N2CCC(N3CCN(C)CC3)CC2)ccc1Nc1ncc(Cl)c(Nc2ccc(C)cc2P(C)(C)=O)n1`, the half-maximal inhibitory concentration (IC50) turned out to be 0.007 µM in [3], 0.19 µM in data set [4], 1.78 µM in data set [5] and 0.016 µM in data set [6].

On to `C[C@@H]1CN(C(=O)c2ccc(NC(=O)c3cc(O[C@H](C)c4c(Cl)ccc(F)c4Cl)c(N)nn3)cc2)C[C@H](C)N1` [ENSARTINIB], for which, in [8], the inhibition in vivo at 46 mg/kg was -32.4%.

As to `C[C@@H](Oc1cc(-c2cnn(C3CCNCC3)c2)cnc1N)c1c(Cl)ccc(F)c1Cl` [CRIZOTINIB], the TGI result in data set [9] is “No effect”; in [11], 18%. Besides, the IC50 worked out at 0.02 µM in [3], […] in [10], 0.12 µM in data set [12] and 0.16 µM in data set [6].

Take `Cc1cc(Nc2ncc(Cl)c(Nc3ccccc3S(=O)(=O)C(C)C)n2)c(OC(C)C)cc1C1CCNCC1` [CERITINIB]: in data set [13], the inhibition in vivo at 25 mg/kg is -3.8%.

As to `COc1cc(N2CCC(N3CCN(C)CC3)CC2)ccc1Nc1ncc(Cl)c(Nc2ccccc2P(C)(C)=O)n1` [BRIGATINIB], the Activity entry in [14], in data set [15], in data set [16], in data set [17], in data set [19] and in data set [22] was “Toxic” each time. In addition, the Activity result in data set [23] was “Toxic”. For the same compound, the concentration for half-maximal inhibition (IC50) was 0.004 µM in [3]; 0.18 µM in data set [4]; 1.65 µM in [5]; 0.19 µM in data set [10]; 0.014 µM in [12]; 0.01 µM in data set [6]. Further, the inhibition in vivo at 37 mg/kg in data set [18] amounted to 94.8%. In addition, the MTD – broadly, the largest dose that counted as tolerated – at 336 h in data set [20] was found to be 75 mg/kg. In data set [21], the total exposure AUC(0-inf) (as a rule, total exposure, with the tail of the curve extrapolated) came out at 21.6 µg·h/mL. For the same compound, the half-life (usually how long it takes for the measured level to halve) in [24] is 18.6 h. For the same compound, the time of peak concentration (Tmax) (usually the time at which the peak concentration occurs) in data set [25] was found to be 3 h. Also, the mean residence time (MRT inf) (usually a mean duration of stay, worked out from the concentration-time curve) in [26] was determined as 9.7 h. Also, the peak level in data set [27] (Cmax) was 1.93 µg/mL.

On to `C=CC(=O)Nc1cc(Nc2nccc(-c3cn(C)c4ccccc34)n2)c(OC)cc1N(C)CCN(C)C` [OSIMERTINIB], for which the concentration for half-maximal inhibition (IC50) in [28] worked out at 3.36 µM; in data set [4] it was 0.79 µM; in [29], 2.85 µM; in [5], 0.075 µM; in data set [30] it was […].

Take `C#Cc1cccc(Nc2ncnc3cc(OCCOC)c(OCCOC)cc23)c1` [ERLOTINIB]: the IC50 came out at 4.93 µM in [28], 9.51 µM in data set [29] and 0.65 µM in data set [30].

Turning to `COc1cc(N2CCC(N3CCN(C)CC3)CC2)c(C)cc1Nc1ncc(Br)c(Nc2ccc(F)cc2P(C)(C)=O)n1`, the half-inhibitory concentration (IC50) was found to be 0.009 µM in data set [3], 0.019 µM in [4], 1.08 µM in data set [5] and 0.017 µM in [6].

In the case of `COc1cc(N2CCC(N3CCN(C)CC3)CC2)c(Cl)cc1Nc1ncc(Br)c(Nc2ccc(C)cc2P(C)(C)=O)n1`, the concentration for half-maximal inhibition (IC50) was 0.007 µM in [3], 0.019 µM in [4], 0.6 µM in data set [5] and 0.013 µM in data set [6].
